Molecules are shown by their SMILES.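 Five compound concentrations were applied to cells in 96-well plates for 48 hours; endpoints were derived by simple linear interpolation of the resulting dose-response curve. The concentration for 50% growth inhibition is given as GI50. TGI: concentration producing complete growth inhibition.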 Where a SMILES comes first, the peptide text is derived from it. The star is where a group is joined. Trt = c1ccc(C(c2ccccc2)(c2ccccc2)*)cc1; Cbz = O=C(OCc1ccccc1)* Where only a bound is given, the exact number is not on record here.

Some test systems named below: DU-145 prostate; HCC-2998 colon; ACHN renal; CAKI-1 renal; LOX IMVI melanoma; NCI-H23 lung; 786-0 renal; A549 NSCLC.
Common to all, as to assay: NCI tumour cell line growth inhibition, 48 h

On to `O=C1CC2OCC=C3CN4CCC56c7ccccc7N1C5C2C3CC46O` (stereo not given), for which the TGI with DU-145 prostate, in the assay with HCC-2998 colon, in the assay with ACHN renal, in the assay on CAKI-1 renal, with LOX IMVI melanoma and with NCI-H23 lung was more than 100 µM throughout. In addition, the TGI in the assay with 786-0 renal and in the assay with A549 NSCLC was more than 100 µM each time.

For the compound `Cc1ccc(CNc2ccc(Br)cc2)cc1`, the TGI was more than 100 µM with DU-145 prostate; 66 µM in the assay on HCC-2998 colon; 41.7 µM with ACHN renal; more than 100 µM with CAKI-1 renal; more than 100 µM in the assay with LOX IMVI melanoma; more than 100 µM in the assay with NCI-H23 lung. Further, the TGI in the assay on 786-0 renal and with A549 NSCLC was more than 100 µM each time.

Consider `Oc1ccc(Br)cc1C=Nc1cccc(C(F)(F)F)c1`, for which the TGI with DU-145 prostate was more than 100 µM; with HCC-2998 colon it was 60.1 µM; in the assay with ACHN renal it was more than 100 µM; in the assay with CAKI-1 renal, more than 100 µM; in the assay with LOX IMVI melanoma it was more than 100 µM; in the assay with NCI-H23 lung, more than 100 µM. Also, the TGI with 786-0 renal and in the assay with A549 NSCLC was more than 100 µM throughout.

In the case of `CCOC(=O)CSc1cc(Cl)c(C)cc1S(=O)(=O)/N=C(/N=C/c1ccc([N+](=O)[O-])s1)NNC`, the GI50 is 7.45 µM in the assay with DU-145 prostate; 17 µM in the assay with ACHN renal; 17.6 µM with CAKI-1 renal; 17.8 µM in the assay on LOX IMVI melanoma; 14.5 µM with NCI-H23 lung; 20.2 µM with 786-0 renal. Also, the GI50 in the assay on A549 NSCLC was 32.7 µM. Also, the TGI in the assay with DU-145 prostate came to 41.2 µM; in the assay on ACHN renal it was 39.9 µM; in the assay with CAKI-1 renal, 49.3 µM; in the assay with LOX IMVI melanoma it was 31.6 µM; with NCI-H23 lung it was 37.2 µM; with 786-0 renal, 42.5 µM. The compound further returned a TGI in the assay with A549 NSCLC of more than 100 µM.

Turning to `COc1ccc2nc3cc(Cl)ccc3c(NCCCNCCO)c2c1`, the GI50 in the assay on DU-145 prostate is 0.48 µM; in the assay on HCC-2998 colon it was 0.609 µM; with ACHN renal, 0.403 µM; in the assay with CAKI-1 renal, 0.816 µM; with LOX IMVI melanoma it was 0.294 µM; with NCI-H23 lung it was 0.499 µM. In addition, the results for the GI50 in the assay on 786-0 renal and with A549 NSCLC were 0.531 µM and 0.378 µM, respectively. For the same compound, the TGI amounted to 2.77 µM in the assay with DU-145 prostate; 2.17 µM in the assay with HCC-2998 colon; 3.25 µM in the assay with ACHN renal; 3.55 µM with CAKI-1 renal; 1.12 µM with LOX IMVI melanoma; 2.48 µM with NCI-H23 lung. In addition, the TGI with 786-0 renal amounted to 1.96 µM; in the assay with A549 NSCLC it was 2.06 µM.

Take `C[C@@]1([C@H](OC(=O)c2ccccc2)C(N)=O)CO1`: the GI50 in the assay on DU-145 prostate was 27.2 µM; in the assay on HCC-2998 colon, 20.5 µM; in the assay with ACHN renal, 10.5 µM; in the assay with CAKI-1 renal, 10.7 µM; in the assay with LOX IMVI melanoma it was 4.21 µM; with NCI-H23 lung, 20.2 µM. Moreover, the results for the GI50 in the assay with 786-0 renal and with A549 NSCLC were 22.6 µM and 24 µM, respectively. In addition, the TGI in the assay on DU-145 prostate is more than 100 µM; in the assay with HCC-2998 colon, 40.3 µM; in the assay with ACHN renal, 34.3 µM; in the assay on CAKI-1 renal, 31.5 µM; in the assay on LOX IMVI melanoma, 24.5 µM; in the assay with NCI-H23 lung, 61.5 µM. Moreover, the figures for the TGI with 786-0 renal and with A549 NSCLC were 59.4 µM and 61.4 µM, respectively.

Consider `COc1cc2c(c(OC)c1OC)-c1ccc(NN(C(=O)c3ccccc3)C(=O)c3ccccc3)c(=O)cc1[C@@H](NC(C)=O)CC2` (tested in a mixture with another compound), for which the GI50 in the assay with DU-145 prostate was 3.3 µM; in the assay with HCC-2998 colon it was 3.23 µM; with ACHN renal, 4.27 µM; with CAKI-1 renal, 4.62 µM; in the assay on LOX IMVI melanoma it was 4.24 µM; with NCI-H23 lung it was 3.91 µM. Moreover, the GI50 with 786-0 renal was 3.31 µM; in the assay on A549 NSCLC, 4.02 µM. Also, the TGI in the assay with DU-145 prostate is more than 100 µM; in the assay on HCC-2998 colon, 12.7 µM; in the assay with ACHN renal it was 24.8 µM; in the assay with CAKI-1 renal it was 47.1 µM; with LOX IMVI melanoma, 16.5 µM; with NCI-H23 lung, 37.6 µM. Moreover, the TGI in the assay on 786-0 renal was 13.4 µM; in the assay on A549 NSCLC, more than 100 µM.

Regarding `O=C1/C(=C/c2ccc(Cl)c(Cl)c2)CN(C(=O)C(Cl)Cl)C/C1=C\c1ccc(Cl)c(Cl)c1`, the GI50 in the assay with DU-145 prostate is 0.369 µM; in the assay with HCC-2998 colon, 0.181 µM; with ACHN renal, 0.179 µM; in the assay with CAKI-1 renal, 0.244 µM; in the assay on LOX IMVI melanoma, 0.0362 µM; with NCI-H23 lung, 0.136 µM. The GI50 was 0.151 µM in the assay with 786-0 renal and 0.22 µM in the assay on A549 NSCLC. Besides, the TGI amounted to 1.41 µM with DU-145 prostate; 0.355 µM in the assay with HCC-2998 colon; 0.474 µM in the assay on ACHN renal; 0.826 µM in the assay with CAKI-1 renal; 0.136 µM with LOX IMVI melanoma; 0.567 µM in the assay on NCI-H23 lung. For the same compound, the values for the TGI in the assay with 786-0 renal and with A549 NSCLC were 0.306 µM and 0.908 µM, respectively.

`CC(C)=CCc1cc2c(cc1O)C1=C(C(=O)C3=C(C1=O)S(=O)(=O)CCN3)C(C=C(C)C)O2` (stereo not given): the GI50 is 0.309 µM in the assay on DU-145 prostate; 1.48 µM with HCC-2998 colon; 2.27 µM in the assay with ACHN renal; 0.492 µM in the assay on LOX IMVI melanoma; 0.7 µM with NCI-H23 lung; 2.49 µM in the assay with 786-0 renal. Further, in the assay on A549 NSCLC, the GI50 was 2.23 µM. In addition, the TGI was 0.597 µM in the assay on DU-145 prostate; 3.84 µM with HCC-2998 colon; 5.65 µM with ACHN renal; 2.06 µM in the assay with LOX IMVI melanoma; 4.01 µM with NCI-H23 lung; 7.03 µM in the assay with 786-0 renal. In addition, the TGI in the assay with A549 NSCLC turned out to be 5.59 µM.

For the compound `COC(=O)C(CO)NC(=O)C(CSC(c1ccccc1)(c1ccccc1)c1ccccc1)NC(=O)OCc1ccccc1` (stereo not given) (Cbz-Cys(Trt)-Ser-OMe; configuration not given here), the TGI with DU-145 prostate is 43.4 µM; in the assay with HCC-2998 colon, 29 µM; in the assay on ACHN renal, more than 53.3 µM; in the assay with CAKI-1 renal, 39.4 µM; with LOX IMVI melanoma, 30.1 µM; in the assay on NCI-H23 lung it was 40.8 µM. In addition, the TGI in the assay with 786-0 renal was 46.9 µM; with A549 NSCLC, more than 48.5 µM.

As for `CC(=O)Nc1ccc(C(=O)CCl)cc1`, the GI50 in the assay on DU-145 prostate is 9.19 µM; in the assay with HCC-2998 colon, 7.48 µM; in the assay with ACHN renal, 1.8 µM; in the assay on CAKI-1 renal it was 1.78 µM; in the assay with LOX IMVI melanoma it was 1.93 µM; with NCI-H23 lung, 11.4 µM. Moreover, the GI50 with 786-0 renal is 4.41 µM; in the assay with A549 NSCLC, 18.9 µM. The TGI was 21.2 µM in the assay with DU-145 prostate; 20.7 µM in the assay on HCC-2998 colon; 3.29 µM in the assay with ACHN renal; 3.24 µM with CAKI-1 renal; 4.17 µM in the assay with LOX IMVI melanoma; 31.6 µM in the assay on NCI-H23 lung. Besides, the TGI in the assay with 786-0 renal amounted to 15.2 µM; with A549 NSCLC it was 39.2 µM.

The record behind these values is PubChem BioAssay (NCI).
